Laboratory results from patent publication US10202361B2, “Pyridazinones as herbicides” (E I DU PONT DE NEMOURS AND COMPANY, priority 2014, dated 2019).
Where two headings read alike, the source gives them in different places.

Columns and labels:
Assay in all cases: Test C pre-/postemergence greenhouse herbicide test
Format in all cases: in vivo
[1] = tested on: wheat (winter wheat, Triticum aestivum); settings: Triticum aestivum, Wheat, read-out: Plant response rating; for plant injury at 62 g/ha: 62 g ai/ha; for plant injury at 125 g/ha: 125 g ai/ha; for plant injury at 250 g/ha: 250 g ai/ha
In short: (§1)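 Visual ratings, 0 = no effect, 100 = complete control, vs untreated controls at 13–15 d. Pre: seeds in loam/sand. Post: 2–18 cm plants (1–4 leaf), peat/vermiculite mix. Surfactant-containing solvent formulation; greenhouse.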

[2] = tested on: pigweed (Amaranthus retroflexus); settings: Amaranthus retroflexus, Pigweed, read-out: Plant response rating; for pest or weed control at 31 g/ha: 31 g ai/ha; for pest or weed control at 62 g/ha: 62 g ai/ha; for pest or weed control at 125 g/ha: 125 g ai/ha; for pest or weed control at 250 g/ha: 250 g ai/ha
In short: as §1

corn (Zea mays) = settings: Zea mays, Corn, read-out: Plant response rating; for plant injury at 31 g/ha: 31 g ai/ha; for plant injury at 62 g/ha: 62 g ai/ha; for plant injury at 125 g/ha: 125 g ai/ha; for plant injury at 250 g/ha: 250 g ai/ha
In short: as §1

[3] = tested on: johnsongrass (Sorghum halepense); settings: Sorghum halepense, Johnsongrass, read-out: Plant response rating; for pest or weed control at 31 g/ha: 31 g ai/ha; for pest or weed control at 62 g/ha: 62 g ai/ha; for pest or weed control at 125 g/ha: 125 g ai/ha; for pest or weed control at 250 g/ha: 250 g ai/ha
In short: as §1

soybean (Glycine max) = settings: Glycine max, Soybean, read-out: Plant response rating; for plant injury at 62 g/ha: 62 g ai/ha; for plant injury at 125 g/ha: 125 g ai/ha; for plant injury at 250 g/ha: 250 g ai/ha
In short: as §1

[4] = tested on: nutsedge, yellow (yellow nutsedge, Cyperus esculentus); settings: Cyperus, Nutsedge, Yellow, read-out: Plant response rating; for pest or weed control at 31 g/ha: 31 g ai/ha; for pest or weed control at 62 g/ha: 62 g ai/ha; for pest or weed control at 125 g/ha: 125 g ai/ha; for pest or weed control at 250 g/ha: 250 g ai/ha
In short: as §1

kochia (Kochia scoparia) = tested on: kochia (Kochia scoparia)
In short: as §1

[5] = tested on: morningglory (Ipomoea coccinea); settings: Morningglory
In short: as §1

[6] = tested on: oat, wild (wild oat, Avena fatua)
In short: as §1

[7] = tested on: galium (catchweed bedstraw, Galium aparine); settings: Galium, read-out: Plant response rating; for pest or weed control at 31 g/ha: 31 g ai/ha; for pest or weed control at 62 g/ha: 62 g ai/ha; for pest or weed control at 125 g/ha: 125 g ai/ha; for pest or weed control at 250 g/ha: 250 g ai/ha
In short: as §1

[8] = tested on: lambsquarters (Chenopodium album)
In short: as §1

[9] = post-emergence, Postemergence, 31 g ai/ha

Cc1cc(=O)n(-c2ccc(F)cc2)nc1Oc1ccnc(C(F)(F)F)c1 [Compound 14, 2-(4-fluorophenyl)-5-methyl-6-[[2-(trifluoromethyl)-4-pyridinyl]oxy]-3 (2H)-pyridazinone]
plant injury at 31 g/ha [1, 9]: 5% | plant injury at 62 g/ha ([1]; post-emergence, Postemergence): 5% | plant injury at 125 g/ha ([1]; post-emergence, Postemergence): 5% | plant injury at 250 g/ha ([1]; post-emergence, Postemergence): 5% | plant injury at 62 g/ha ([1]; pre-emergence, Preemergence): 0% | plant injury at 125 g/ha ([1]; pre-emergence, Preemergence): 15% | plant injury at 250 g/ha ([1]; pre-emergence, Preemergence): 25% | pest or weed control at 31 g/ha ([2]; post-emergence, Postemergence): 60% | pest or weed control at 62 g/ha ([2]; post-emergence, Postemergence): 65% | pest or weed control at 125 g/ha ([2]; post-emergence, Postemergence): 80% | pest or weed control at 250 g/ha ([2]; post-emergence, Postemergence): 85% | pest or weed control at 31 g/ha ([2]; pre-emergence, Preemergence): 100% | pest or weed control at 62 g/ha ([2]; pre-emergence, Preemergence): 100% | pest or weed control at 125 g/ha ([2]; pre-emergence, Preemergence): 100% | pest or weed control at 250 g/ha ([2]; pre-emergence, Preemergence): 100% | plant injury at 31 g/ha (corn (Zea mays); post-emergence, Postemergence): 20% | plant injury at 62 g/ha (corn (Zea mays); post-emergence, Postemergence): 35% | plant injury at 125 g/ha (corn (Zea mays); post-emergence, Postemergence): 40% | plant injury at 250 g/ha (corn (Zea mays); post-emergence, Postemergence): 40% | plant injury at 31 g/ha (corn (Zea mays); pre-emergence, Preemergence): 0% | plant injury at 62 g/ha (corn (Zea mays); pre-emergence, Preemergence): 35% | plant injury at 125 g/ha (corn (Zea mays); pre-emergence, Preemergence): 50% | plant injury at 250 g/ha (corn (Zea mays); pre-emergence, Preemergence): 75% | pest or weed control at 31 g/ha ([3]; post-emergence, Postemergence): 10% | pest or weed control at 62 g/ha ([3]; post-emergence, Postemergence): 15% | pest or weed control at 125 g/ha ([3]; post-emergence, Postemergence): 25% | pest or weed control at 250 g/ha ([3]; post-emergence, Postemergence): 30% | pest or weed control at 31 g/ha ([3]; pre-emergence, Preemergence): 5% | pest or weed control at 62 g/ha ([3]; pre-emergence, Preemergence): 35% | pest or weed control at 125 g/ha ([3]; pre-emergence, Preemergence): 35% | pest or weed control at 250 g/ha ([3]; pre-emergence, Preemergence): 85% | plant injury at 31 g/ha (soybean (Glycine max); [9]): 90% | plant injury at 62 g/ha (soybean (Glycine max); post-emergence, Postemergence): 90% | plant injury at 125 g/ha (soybean (Glycine max); post-emergence, Postemergence): 95% | plant injury at 250 g/ha (soybean (Glycine max); post-emergence, Postemergence): 95% | plant injury at 62 g/ha (soybean (Glycine max); pre-emergence, Preemergence): 40% | plant injury at 125 g/ha (soybean (Glycine max); pre-emergence, Preemergence): 55% | plant injury at 250 g/ha (soybean (Glycine max); pre-emergence, Preemergence): 75% | pest or weed control at 31 g/ha ([4]; post-emergence, Postemergence): 5% | pest or weed control at 62 g/ha ([4]; post-emergence, Postemergence): 5% | pest or weed control at 125 g/ha ([4]; post-emergence, Postemergence): 5% | pest or weed control at 250 g/ha ([4]; post-emergence, Postemergence): 10% | pest or weed control at 31 g/ha ([4]; pre-emergence, Preemergence): 0% | pest or weed control at 62 g/ha ([4]; pre-emergence, Preemergence): 5% | pest or weed control at 125 g/ha ([4]; pre-emergence, Preemergence): 25% | pest or weed control at 250 g/ha ([4]; pre-emergence, Preemergence): 25% | Plant response rating (kochia (Kochia scoparia); Postemergence, 31 g ai/ha): 25 | Plant response rating (kochia (Kochia scoparia); Postemergence, 62 g ai/ha): 35 | Plant response rating (kochia (Kochia scoparia); Postemergence, 125 g ai/ha): 55 | Plant response rating (kochia (Kochia scoparia); Postemergence, 250 g ai/ha): 80 | Plant response rating (kochia (Kochia scoparia); Preemergence, 31 g ai/ha): 45 | Plant response rating (kochia (Kochia scoparia); Preemergence, 62 g ai/ha): 75 | Plant response rating (kochia (Kochia scoparia); Preemergence, 125 g ai/ha): 90 | Plant response rating (kochia (Kochia scoparia); Preemergence, 250 g ai/ha): 90 | Plant response rating ([5]; Postemergence, 31 g ai/ha): 75 | Plant response rating ([5]; Postemergence, 62 g ai/ha): 75 | Plant response rating ([5]; Postemergence, 125 g ai/ha): 80 | Plant response rating ([5]; Postemergence, 250 g ai/ha): 98 | Plant response rating ([5]; Preemergence, 31 g ai/ha): 35 | Plant response rating ([5]; Preemergence, 62 g ai/ha): 60 | Plant response rating ([5]; Preemergence, 125 g ai/ha): 65 | Plant response rating ([5]; Preemergence, 250 g ai/ha): 75 | Plant response rating ([6]; Postemergence, 31 g ai/ha): 20 | Plant response rating ([6]; Postemergence, 62 g ai/ha): 30 | Plant response rating ([6]; Postemergence, 125 g ai/ha): 30 | Plant response rating ([6]; Postemergence, 250 g ai/ha): 30 | Plant response rating ([6]; Preemergence, 31 g ai/ha): 0 | Plant response rating ([6]; Preemergence, 62 g ai/ha): 0 | Plant response rating ([6]; Preemergence, 125 g ai/ha): 65 | Plant response rating ([6]; Preemergence, 250 g ai/ha): 65 | pest or weed control at 31 g/ha ([7]; post-emergence, Postemergence): 50% | pest or weed control at 62 g/ha ([7]; post-emergence, Postemergence): 55% | pest or weed control at 125 g/ha ([7]; post-emergence, Postemergence): 55% | pest or weed control at 250 g/ha ([7]; post-emergence, Postemergence): 75% | pest or weed control at 31 g/ha ([7]; pre-emergence, Preemergence): 60% | pest or weed control at 62 g/ha ([7]; pre-emergence, Preemergence): 98% | pest or weed control at 125 g/ha ([7]; pre-emergence, Preemergence): 100% | pest or weed control at 250 g/ha ([7]; pre-emergence, Preemergence): 100% | Plant response rating ([8]; Postemergence, 31 g ai/ha): 40 | Plant response rating ([8]; Postemergence, 62 g ai/ha): 40 | Plant response rating ([8]; Postemergence, 125 g ai/ha): 45 | Plant response rating ([8]; Postemergence, 250 g ai/ha): 45 | Plant response rating ([8]; Preemergence, 31 g ai/ha): 55 | Plant response rating ([8]; Preemergence, 62 g ai/ha): 95 | Plant response rating ([8]; Preemergence, 125 g ai/ha): 95 | Plant response rating ([8]; Preemergence, 250 g ai/ha): 98
